This is an account of results in patent publication EP4796126A1, “COMBINATION OF CLDN18_2 ANTIBODY AND CHEMOTHERAPEUTIC DRUG AND USE THEREOF” (Jiangsu Aosaikang Biopharmaceutical Co., Ltd., priority 2023, dated 2025).

One data set has as its system KATO III/18.2. Nature of the data set: Efficacy against subcutaneous xenograft tumors of human gastric cancer KATO III/18.2 in mice. It is filed as in vivo, NOD-Scid mice. Here is the method: NOD-Scid mice (7 weeks old, female) were purchased from Shanghai Lingchang Biotechnology Co., Ltd. Each mouse was subcutaneously inoculated with 1 × 10^7 KATO III/18.2 cells. When tumor volume reached 60 mm^3 to 150 mm^3, the mice were grouped according to tumor volume, and then the medicaments were administered intraperitoneally (IP) at an injection volume of 0.1 mL per 10 g of body weight.

The next data set has as its system Miapaca2/18.2. Nature of the data set: Efficacy against subcutaneous xenograft tumors of human pancreatic cancer Miapaca2/18.2 in mice. It is filed as in vivo. Here is the method: NOD-Scid mice (7 weeks old, female) were purchased from Shanghai Lingchang Biotechnology Co., Ltd. Each mouse was subcutaneously inoculated with 1 × 10^7 Miapaca2/18.2 cells. When tumor volume reached 60 mm^3 to 150 mm^3, the mice were grouped according to tumor volume and then the medicaments were administered intraperitoneally (IP) at an injection volume of 0.1 mL per 10 g of body weight.
(In general: Xenograft models place foreign cells or tissue in a host animal.)

As to `O=C1[O][Pt]2([NH][C@@H]3CCCC[C@H]3[NH]2)[O]C1=O` [oxaliplatin], the tumor growth inhibition with KATO III/18.2 (Day 23 (first dose Day 0), M5 monoclonal antibody or Human IgG1 10 mg/kg IP BIW 6 times, oxaliplatin 8 mg/kg IP Q4D 3 times) came to 31%. This compound also gave a maximum weight losses in the data set with KATO III/18.2 (mice, on Day 10) of 5.5%.
Turning to `Nc1ccn([C@@H]2O[C@H](CO)[C@@H](O)C2(F)F)c(=O)n1` [gemcitabine], the tumor growth inhibition in the data set on Miapaca2/18.2 (Day 14 (first dose Day 0), M5 monoclonal antibody or Human IgG1 10 mg/kg IP BIW 4 times, gemcitabine 75 mg/kg IP Q4D 2 times) amounted to 53%. The compound further yielded a maximum weight loss with Miapaca2/18.2 (mice, on Day 7) of 9.2%. Also, the mice died entry in the data set on Miapaca2/18.2 (ten mice per group) is listed as “one out of ten”.
